Consider 3 compounds from paper PMC4410475, “Discovery and anti-cancer evaluation of two novel non-ATP-competitive FGFR1 inhibitors in non-small-cell lung cancer” (BMC Cancer, 2015).

Common to all, as to type: biochemical
Assay [1] has as its target T1, FGFR1 (Homo sapiens, UniProt P11362). Kind of assay: Caliper mobility shift kinase assay with recombinant FGFR1, ATP at Km ([…]).
Assay [2] concerns the target T1, FGFR1. The assay is described as follows: Caliper mobility shift kinase assay with recombinant FGFR1, also at varied ATP concentrations.
Assay [3] deals with FGFR3 (Homo sapiens, UniProt P22607). The assay is described as follows: cell-free kinase assay (authors' own, called previous). The conditions noted are these: cited from earlier work.
FGFR3, sequence (P22607 23-806): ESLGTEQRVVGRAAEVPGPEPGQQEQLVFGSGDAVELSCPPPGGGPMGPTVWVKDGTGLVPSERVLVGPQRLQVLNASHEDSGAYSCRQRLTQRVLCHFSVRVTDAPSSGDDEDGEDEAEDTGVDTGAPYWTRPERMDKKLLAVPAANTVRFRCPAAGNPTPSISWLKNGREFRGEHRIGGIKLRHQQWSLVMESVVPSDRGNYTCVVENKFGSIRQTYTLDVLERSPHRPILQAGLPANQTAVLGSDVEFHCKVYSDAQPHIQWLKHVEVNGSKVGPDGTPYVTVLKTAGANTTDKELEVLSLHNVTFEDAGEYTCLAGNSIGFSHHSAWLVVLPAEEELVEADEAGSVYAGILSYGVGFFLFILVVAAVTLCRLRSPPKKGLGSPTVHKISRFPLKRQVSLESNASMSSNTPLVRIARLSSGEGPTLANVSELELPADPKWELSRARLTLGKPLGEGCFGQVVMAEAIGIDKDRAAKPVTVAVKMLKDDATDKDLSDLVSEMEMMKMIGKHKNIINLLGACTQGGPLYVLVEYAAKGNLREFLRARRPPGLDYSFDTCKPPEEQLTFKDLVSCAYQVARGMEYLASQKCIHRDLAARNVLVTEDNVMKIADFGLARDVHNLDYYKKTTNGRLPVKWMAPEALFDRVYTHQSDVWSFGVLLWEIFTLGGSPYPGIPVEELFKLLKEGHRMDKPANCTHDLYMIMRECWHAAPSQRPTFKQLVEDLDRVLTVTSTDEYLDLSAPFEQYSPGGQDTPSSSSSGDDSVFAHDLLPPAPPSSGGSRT

Structures are written as SMILES. pIC50: −log10 of the molar value.

T1 sequence (P11362 22-822): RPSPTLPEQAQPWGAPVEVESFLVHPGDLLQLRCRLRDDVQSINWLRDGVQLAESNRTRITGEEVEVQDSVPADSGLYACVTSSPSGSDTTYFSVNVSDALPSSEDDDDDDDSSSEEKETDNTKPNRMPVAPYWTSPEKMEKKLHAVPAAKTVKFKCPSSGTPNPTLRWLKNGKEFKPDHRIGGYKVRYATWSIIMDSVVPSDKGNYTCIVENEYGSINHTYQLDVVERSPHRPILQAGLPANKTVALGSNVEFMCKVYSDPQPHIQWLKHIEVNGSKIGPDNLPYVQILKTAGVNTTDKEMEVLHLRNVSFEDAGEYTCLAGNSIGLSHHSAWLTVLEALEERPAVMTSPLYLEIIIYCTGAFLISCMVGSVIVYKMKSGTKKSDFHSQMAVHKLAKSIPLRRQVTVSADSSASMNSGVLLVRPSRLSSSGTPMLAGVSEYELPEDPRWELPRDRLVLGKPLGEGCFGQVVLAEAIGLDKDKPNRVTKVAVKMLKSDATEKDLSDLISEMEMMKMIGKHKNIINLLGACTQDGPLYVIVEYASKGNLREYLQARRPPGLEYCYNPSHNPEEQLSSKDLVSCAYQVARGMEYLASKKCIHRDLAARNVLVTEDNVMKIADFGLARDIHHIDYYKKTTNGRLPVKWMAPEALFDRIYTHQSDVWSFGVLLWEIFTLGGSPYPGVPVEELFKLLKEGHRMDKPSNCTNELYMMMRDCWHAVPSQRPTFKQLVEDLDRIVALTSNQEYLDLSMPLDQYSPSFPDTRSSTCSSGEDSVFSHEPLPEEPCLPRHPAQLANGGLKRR

In the case of `O=C1/C(=C/c2ccc(O)c(O)c2)CSC/C1=C\c1ccc(O)c(O)c1` [Ad23, 3,5-bis(3,4-dihydroxybenzylidene)-tetrahydrothiopyran-4-one], in assay [1], the pIC50 (usually −log10 of the IC50, conventionally taken in molar units) was 6.22.
As to `O=C1/C(=C/c2ccc(O)c(O)c2)COC/C1=C\c1ccc(O)c(O)c1` [Af23, 3,5-bis(3,4-dihydroxybenzylidene)-tetrahydropyran-4-one], the pIC50 in assay [1] is 5.85.
Regarding `CC(Cc1ccc(O)c(O)c1)C(C)Cc1ccc(O)c(O)c1` (stereo not shown) [NDGA, nordihydroguaiaretic acid], the pIC50 in assay [2] is 4.61; in assay [3] it was 4.14.
